From patent publication US20250296959A1, “B7-H3 TARGETING PEPTIDES AND CONSTRUCTS THEREOF” (Mariana Oncology Inc., priority 2024, published 2025)
pKd: −log10 of the molar value. Positions of bridges follow the written chain, without caps; N, C: chain ends. Non-standard residues stand in square brackets, D forms with d. Residues, ends and D or L forms follow the SMILES beside them. *: point of attachment. DOTA = O=C(O)CN1CCN(CC(=O)O)CCN(CC(=O)*)CCN(CC(=O)O)CC1; Trp(5-F) = N[C@@H](Cc1c[nH]c2ccc(F)cc12)C(=O)O; N(CH2CH2COOH)Gly = O=C(O)CCNCC(=O)O; 4Pal = N[C@@H](Cc1ccncc1)C(=O)O; Chg = N[C@H](C(=O)O)C1CCCCC1; Tle = CC(C)(C)[C@H](N)C(=O)O; Nle = CCCC[C@H](N)C(=O)O; Orn = NCCC[C@H](N)C(=O)O; NEtG = CCNCC(=O)O

The compounds below were run against T1, human 4lg B7-H3 (Homo sapiens, UniProt Q5ZPR3) (assay: Affinity determination by surface plasmon resonance (SPR) to 4Ig B7-H3). Conditions: SPR KD—25° C., 4Ig B7-H3; 25° C. flow cell temperature.
T1 sequence (Q5ZPR3 29-534): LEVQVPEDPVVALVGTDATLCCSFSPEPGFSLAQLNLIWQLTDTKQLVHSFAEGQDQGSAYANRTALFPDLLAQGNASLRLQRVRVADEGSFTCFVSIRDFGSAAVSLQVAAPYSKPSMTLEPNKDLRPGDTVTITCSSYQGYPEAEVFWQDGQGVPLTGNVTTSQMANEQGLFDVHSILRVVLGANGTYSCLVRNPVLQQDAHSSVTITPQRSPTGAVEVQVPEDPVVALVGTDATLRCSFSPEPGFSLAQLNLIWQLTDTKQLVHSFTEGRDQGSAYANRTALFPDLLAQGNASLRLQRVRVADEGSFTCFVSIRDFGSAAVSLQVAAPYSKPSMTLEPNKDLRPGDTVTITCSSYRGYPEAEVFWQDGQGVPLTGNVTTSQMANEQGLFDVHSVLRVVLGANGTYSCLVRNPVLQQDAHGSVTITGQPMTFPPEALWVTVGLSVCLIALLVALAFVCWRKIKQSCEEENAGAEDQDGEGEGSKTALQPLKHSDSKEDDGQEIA

pKd	SMILES
7.00 to 8.00	CCCC[C@H](NC(C)=O)C(=O)N[C@@H](Cc1ccc(O)cc1)C(=O)N[C@H]1CSSC[C@@H](C(=O)N[C@@H](Cc2c[nH]c3ccccc23)C(=O)N[C@@H](Cc2ccccc2)C(N)=O)NC(=O)[C@H](Cc2ccc(O)cc2)NC(=O)[C@H](C(C)C)NC(=O)[C@H](CC(=O)O)NC(=O)[C@H](Cc2ccc(O)cc2)NC(=O)[C@H](CCCCN)NC(=O)CN(CC)C(=O)[C@H](C(C)C)NC1=O [compound 52, Ac-Nle-Y-C-V-NetGly-K-Y-D-V-Y-C-W-F-CONH2] (Ac-[Nle]YCV[NEtG]KYDVYCWF-NH2; disulfide 3-11)
7.00 to 8.00	CCCC[C@H](NC(C)=O)C(=O)N[C@@H](Cc1ccc(O)cc1)C(=O)N[C@H]1CSSC[C@@H](C(=O)N[C@@H](Cc2c[nH]c3ccccc23)C(=O)N[C@@H](Cc2ccccc2)C(=O)N[C@H](C(=O)N[C@H](CCCCNC(=O)CN2CCN(CC(=O)O)CCN(CC(=O)O)CCN(CC(=O)O)CC2)C(N)=O)[C@@H](C)O)NC(=O)[C@H](Cc2ccc(O)cc2)NC(=O)[C@H](C(C)C)NC(=O)[C@H](CC(=O)O)NC(=O)[C@H](Cc2ccc(O)cc2)NC(=O)[C@H](CCCCN)NC(=O)CNC(=O)[C@H](C2CCCCC2)NC1=O [compound 54, Ac-Nle-Y-C-ChG-G-K-Y-D-V-Y-C-W-F-Thr-dLys(DOTA)-CONH2] (Ac-[Nle]YC[Chg]GKYDVYCWFT[dK](DOTA)-NH2; disulfide 3-11)
8.00 to 9.00	CCCC[C@H](NC(C)=O)C(=O)N[C@@H](Cc1ccc(O)cc1)C(=O)N[C@H]1CSSC[C@@H](C(=O)N[C@@H](Cc2c[nH]c3ccccc23)C(=O)N[C@@H](Cc2ccccc2)C(=O)N[C@H](C(=O)N[C@H](CCCCNC(=O)CN2CCN(CC(=O)O)CCN(CC(=O)O)CCN(CC(=O)O)CC2)C(N)=O)[C@@H](C)O)NC(=O)[C@H](Cc2ccc(O)cc2)NC(=O)[C@H](C2CCCCC2)NC(=O)[C@H](CC(=O)O)NC(=O)[C@H](Cc2ccc(O)cc2)NC(=O)[C@H](CCCCN)NC(=O)CNC(=O)[C@H](C(C)C)NC1=O [compound 55, Ac-Nle-Y-C-V-G-K-Y-D-ChG-Y-C-W-F-Thr-dLys(DOTA)-CONH2] (Ac-[Nle]YCVGKYD[Chg]YCWFT[dK](DOTA)-NH2; disulfide 3-11)
7.00 to 8.00	CC(=O)N[C@@H](CC(C)C)C(=O)N[C@@H](Cc1ccc(O)cc1)C(=O)N[C@H]1CSSC[C@@H](C(=O)N[C@@H](Cc2c[nH]c3ccccc23)C(=O)N[C@@H](Cc2ccccc2)C(=O)N[C@H](C(=O)N[C@H](CCCCNC(=O)CN2CCN(CC(=O)O)CCN(CC(=O)O)CCN(CC(=O)O)CC2)C(N)=O)[C@@H](C)O)NC(=O)[C@H](Cc2ccc(O)cc2)NC(=O)[C@H](C(C)C)NC(=O)[C@H](CC(=O)O)NC(=O)[C@H](Cc2ccc(O)cc2)NC(=O)[C@H](CCCCN)NC(=O)CNC(=O)[C@H](C(C)C)NC1=O [compound 56, Ac-Leu-Y-C-V-G-K-Y-D-V-Y-C-W-F-Thr-dLys(DOTA)-CONH2] (Ac-LYCVGKYDVYCWFT[dK](DOTA)-NH2; disulfide 3-11)
8.00 to 9.00	CCCC[C@H](NC(C)=O)C(=O)N[C@@H](Cc1ccc(O)cc1)C(=O)N[C@H]1CSSC[C@@H](C(=O)N[C@@H](Cc2c[nH]c3ccccc23)C(=O)N[C@@H](Cc2ccccc2)C(=O)N[C@H](C(=O)N[C@H](CCCCNC(=O)CN2CCN(CC(=O)O)CCN(CC(=O)O)CCN(CC(=O)O)CC2)C(N)=O)[C@@H](C)O)NC(=O)[C@H](Cc2ccc(O)cc2)NC(=O)[C@H](C(C)C)NC(=O)[C@H](CC(=O)O)NC(=O)[C@H](Cc2ccncc2)NC(=O)[C@H](CCCCN)NC(=O)CNC(=O)[C@H](C(C)C)NC1=O [compound 58, Ac-Nie-Y-C-V-G-K-4PyA-D-V-Y-C-W-F-Thr-dLys(DOTA)-CONH2] (Ac-[Nle]YCVGK[4Pal]DVYCWFT[dK](DOTA)-NH2; disulfide 3-11)
8.00 to 9.00	CCCC[C@H](NC(C)=O)C(=O)N[C@@H](Cc1ccc(O)cc1)C(=O)N[C@H]1CSSC[C@@H](C(=O)N[C@@H](Cc2c[nH]c3ccc(F)cc23)C(=O)N[C@@H](Cc2ccccc2)C(=O)N[C@H](C(N)=O)[C@@H](C)O)NC(=O)[C@H](Cc2ccc(O)cc2)NC(=O)[C@H](C(C)C)NC(=O)[C@H](CC(=O)O)NC(=O)[C@H](Cc2ccc(O)cc2)NC(=O)[C@H](CCCCN)NC(=O)CNC(=O)[C@H](C(C)C)NC1=O [compound 59, Ac-Nle-Y-C-V-G-K-Y-D-V-Y-C-5FW-F-Thr-CONH2] (Ac-[Nle]YCVGKYDVYC[Trp(5-F)]FT-NH2; disulfide 3-11)
8.00 to 9.00	CCCC[C@H](NC(C)=O)C(=O)N[C@@H](Cc1ccc(O)cc1)C(=O)N[C@H]1CSSC[C@@H](C(=O)N[C@@H](Cc2c[nH]c3ccccc23)C(=O)N[C@@H](Cc2ccccc2)C(=O)N[C@H](C(=O)N[C@H](CCCCNC(=O)CN2CCN(CC(=O)O)CCN(CC(=O)O)CCN(CC(=O)O)CC2)C(N)=O)[C@@H](C)O)NC(=O)[C@H](Cc2ccc(O)cc2)NC(=O)[C@H](C(C)C)NC(=O)[C@H](CC(=O)O)NC(=O)[C@H](Cc2ccc(O)cc2)NC(=O)[C@H](CCCCN)NC(=O)CNC(=O)[C@H](C(C)(C)C)NC1=O [compound 61, Ac-Nle-Y-C-Tbg-G-K-Y-D-V-Y-C-W-F-Thr-dLys(DOTA)-CONH2] (Ac-[Nle]YC[Tle]GKYDVYCWFT[dK](DOTA)-NH2; disulfide 3-11)
6.52 to 7.00	CCCC[C@H](NC(C)=O)C(=O)N[C@@H](Cc1ccc(O)cc1)C(=O)N[C@H]1CSSC[C@@H](C(=O)N[C@@H](Cc2c[nH]c3ccccc23)C(=O)N[C@@H](Cc2ccccc2)C(=O)N[C@H](C(=O)N[C@H](CCCCNC(=O)CN2CCN(CC(=O)O)CCN(CC(=O)O)CCN(CC(=O)O)CC2)C(N)=O)[C@@H](C)O)NC(=O)[C@H](Cc2ccc(O)cc2)NC(=O)[C@H](C(C)(C)C)NC(=O)[C@H](CC(=O)O)NC(=O)[C@H](Cc2ccc(O)cc2)NC(=O)[C@H](CCCCN)NC(=O)CNC(=O)[C@H](C(C)C)NC1=O [compound 62, Ac-Nle-Y-C-V-G-K-Y-D-Tbg-Y-C-W-F-Thr-dLys(DOTA)-CONH2] (Ac-[Nle]YCVGKYD[Tle]YCWFT[dK](DOTA)-NH2; disulfide 3-11)
8.00 to 9.00	CCCC[C@H](NC(C)=O)C(=O)N[C@@H](Cc1ccc(O)cc1)C(=O)N[C@H]1CSSC[C@@H](C(=O)N[C@@H](Cc2c[nH]c3ccccc23)C(=O)N[C@@H](Cc2ccccc2)C(=O)N[C@H](C(=O)N[C@H](CCCCNC(=O)CN2CCN(CC(=O)O)CCN(CC(=O)O)CCN(CC(=O)O)CC2)C(N)=O)[C@@H](C)O)NC(=O)[C@H](Cc2ccc(O)cc2)NC(=O)[C@H](C(C)C)NC(=O)[C@H](CC(=O)O)NC(=O)[C@H](Cc2ccc(O)cc2)NC(=O)[C@H](CCCN)NC(=O)CNC(=O)[C@H](C(C)C)NC1=O [compound 63, Ac-Nle-Y-C-V-G-Orn-Y-D-V-Y-C-W-F-Thr-dLys(DOTA)-CONH2] (Ac-[Nle]YCVG[Orn]YDVYCWFT[dK](DOTA)-NH2; disulfide 3-11)

Same assay, conditions: SPR KD—37° C., 4Ig B7-H3; 37° C. flow cell temperature

pKd	SMILES
6.52 to 7.00	CCCC[C@H](NC(C)=O)C(=O)N[C@@H](Cc1ccc(O)cc1)C(=O)N[C@H]1CSSC[C@@H](C(=O)N[C@@H](Cc2c[nH]c3ccccc23)C(=O)N[C@@H](Cc2ccccc2)C(N)=O)NC(=O)[C@H](Cc2ccc(O)cc2)NC(=O)[C@H](C(C)C)NC(=O)[C@H](CC(=O)O)NC(=O)[C@H](Cc2ccc(O)cc2)NC(=O)[C@H](CCCCN)NC(=O)CN(CCC(=O)O)C(=O)[C@H](C(C)C)NC1=O [compound 53, Ac-Nle-Y-C-V-N(CH2)2COOHGly-K-Y-D-V-Y-C-W-F-CONH2] (Ac-[Nle]YCV[N(CH2CH2COOH)Gly]KYDVYCWF-NH2; disulfide 3-11)
